Measured values: paper PMC12381718 (2025)

Assays:
[1] = tested on: ds26 (DNA, duplex) CAATCGGATCGAATTCGATCCGATTG; assay: CD titration; conditions: K+ (100 mM potassium phosphate); 100 mM KPhos pH 7.4, 20 °C; 5 µM DNA; weak Ka seen by UV-visible
[2] = tested on: ds26 (DNA, duplex) CAATCGGATCGAATTCGATCCGATTG; assay: UV-visible titration; conditions: K+ (100 mM potassium phosphate), 100 mM KPhos pH 7.4, ambient temperature, 10 µM ligand, apparent

binding [1]	Ka ([2]; continuous 405 nm irradiation)	Ka [2]	Structure (SMILES)
no	2.44 × 10^3 M^–1	–	C[n+]1ccc(-c2ccc3c(c2)CCc2cc(-c4cc[n+](C)cc4)ccc2/N=N/3)cc1
–	–	2.53 × 10^3 M^–1	C[n+]1ccc(-c2ccc3c(c2)CCc2cc(-c4cc[n+](C)cc4)ccc2/N=N\3)cc1
